Assay results as given in the supplement of paper PMC11208160.

Experiment: recombinant barcode read abundance after kanamycin selection (control-corrected) (log10(CPM+1)); higher = more efficient recombination; sequences stand for … in AGTGCAGAGAAAATCGGCCAGTTTTCTCTGCCTGCAGTCCGCATGCCGT…AGATTTATGCAGCGGACTGCCTTTCTCCCAAAGTGATAAACCGGACAGTATCATGGACCGGTTTTCCCGGTAATCCGTATTTGCAAGGTTGGTTTCACT; site = the 11-nt target
In short: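 For this pooled screen, each oligo contained a promoter, a target, a barcode and the J23119-driven first 104 bases of the bridge RNA. Gibson cloning placed it into a vector supplying the remaining 73 bp and a T7-inducible recombinase, and the pool was co-electroporated into E. coli with a donor plasmid. Recombination efficiency is derived from barcode counts per million at recombinant junctions after averaging and control correction, and is expressed on a log scale as log10(CPM+1), with selection on chloramphenicol/ampicillin/kanamycin plus 0.1 mM IPTG against a chloramphenicol/ampicillin LB agar control.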
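Note: IS621 recombinase and bridge RNA in Escherichia coli cells.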

Sequence	recombinant barcode read abundance (log10)
TACGCTCCTTGGGTTCTAACCTGTTGCTT (site TACGCTCCTAC)	0.176
TACGCTCCTTGGGTTCTAACCTGTTGCTT (site TACGCTCCTAG)	0.0812
TACGCTCCTTGGGTTCTAACCTGTTGCTT (site TACGCTCCTAT)	0.017
TACTATACTTGGGTTCTAACCTGTTGCCT (site TACTATACTAG)	0.181
TACTATACTTGGGTTCTAACCTGTTGCCT (site TACTATCCTAG)	0.131
TACTATACTTGGGTTCTAACCTGTTGCCT (site TACTATGCTAG)	0.0468
TACTATACTTGGGTTCTAACCTGTTGCCT (site TACTATTCTAG)	0.149
TACTATCCTTGGGTTCTAACCTGTTGCCT (site TACTATACTAG)	0.0496
TACTATCCTTGGGTTCTAACCTGTTGCCT (site TACTATCCTAG)	0.441
TACTATCCTTGGGTTCTAACCTGTTGCCT (site TACTATGCTAG)	0
TACTATCCTTGGGTTCTAACCTGTTGCCT (site TACTATTCTAG)	0.162
TACTATGCTTGGGTTCTAACCTGTTGCCT (site TACTATACTAG)	0.211
TACTATGCTTGGGTTCTAACCTGTTGCCT (site TACTATCCTAG)	0.163
TACTATGCTTGGGTTCTAACCTGTTGCCT (site TACTATGCTAG)	1.19
TACTATGCTTGGGTTCTAACCTGTTGCCT (site TACTATTCTAG)	0.187
TACTCCGCTTGGGTTCTAACCTGTTGCCT (site GACTCCGCTAG)	0.031
TACTCCGCTTGGGTTCTAACCTGTTGCCT (site TACTCCGCTAG)	1.02
TACTGAGCTTGGGTTCTAACCTGTTGCCT (site CACTGAGCTAG)	0.0308
TACTGAGCTTGGGTTCTAACCTGTTGCCT (site TACTGAGCTAG)	0.52
TAGAACTCTTGGGTTCTAACCTGTTGCCT (site TAGAACTCTAG)	0.914
TAGAACTCTTGGGTTCTAACCTGTTGCCT (site TAGAACTCTCG)	0.0641
TAGAACTCTTGGGTTCTAACCTGTTGCCT (site TAGAACTCTGG)	0.156

Sequence	recombinant barcode read abundance (log10)
TAGAACTCTTGGGTTCTAACCTGTTGCCT (site TAGAACTCTTG)	0.119
TAGAACTCTTGGGTTCTAACCTGTTGCGT (site TAGAACTCTAC)	1.07
TAGAACTCTTGGGTTCTAACCTGTTGCGT (site TAGAGCTCTAC)	0.119
TAGAAGACTTGGGTTCTAACCTGTTGCTC (site TAGAAGACTAA)	0.216
TAGAAGACTTGGGTTCTAACCTGTTGCTC (site TAGAAGACTCA)	0.178
TAGAAGACTTGGGTTCTAACCTGTTGCTC (site TAGAAGACTGA)	1.44
TAGAAGACTTGGGTTCTAACCTGTTGCTC (site TAGAAGACTTA)	0.0266
TAGAAGTCTTGGGTTCTAACCTGTTGCAG (site TAGAAGTCTCT)	1.9
TAGAAGTCTTGGGTTCTAACCTGTTGCAG (site TAGATGTCTCC)	0.0783
TAGAATCCTTGGGTTCTAACCTGTTGCAG (site TAGAATCCTAT)	0.0897
TAGAATCCTTGGGTTCTAACCTGTTGCAG (site TAGAATCCTCT)	0.718
TAGAATCCTTGGGTTCTAACCTGTTGCAG (site TAGAATCCTGT)	0.0644
TAGAATCCTTGGGTTCTAACCTGTTGCAG (site TAGAATCCTTT)	0.072
TAGACATCTTGGGTTCTAACCTGTTGCGT (site CGCTTTACTCG)	0.125
TAGACATCTTGGGTTCTAACCTGTTGCGT (site TAGACATCTAC)	1.65
TAGACTACTTGGGTTCTAACCTGTTGCTA (site TAGACTACTAA)	0.198
TAGACTACTTGGGTTCTAACCTGTTGCTA (site TAGACTACTCA)	0.111
TAGACTACTTGGGTTCTAACCTGTTGCTA (site TAGACTACTGA)	0.0863
TAGACTACTTGGGTTCTAACCTGTTGCTA (site TAGACTACTTA)	0.268
TAGACTCCTTGGGTTCTAACCTGTTGCCA (site ACTTGAGCTAT)	0.336
TAGACTCCTTGGGTTCTAACCTGTTGCCA (site TAGACTCCTTG)	0.182
TAGAGCTCTTGGGTTCTAACCTGTTGCGT (site TAGAACTCTAC)	0.246

Sequence	recombinant barcode read abundance (log10)
TAGAGCTCTTGGGTTCTAACCTGTTGCGT (site TAGAGCTCTAC)	1.25
TAGATGTCTTGGGTTCTAACCTGTTGCGG (site TAGAAGTCTCT)	0.0755
TAGATGTCTTGGGTTCTAACCTGTTGCGG (site TAGATGTCTCC)	2.43
TAGCAATCTTGGGTTCTAACCTGTTGCTA (site GTCGTTACTAG)	0.0938
TAGCAATCTTGGGTTCTAACCTGTTGCTA (site TAGCAATCTTA)	0.0837
TAGCACACTTGGGTTCTAACCTGTTGCGG (site TAGCACACTCC)	1.21
TAGCACACTTGGGTTCTAACCTGTTGCGG (site TAGCCCACTCC)	0.112
TAGCACACTTGGGTTCTAACCTGTTGCGG (site TAGCGCACTCC)	0.291
TAGCACACTTGGGTTCTAACCTGTTGCGG (site TAGCTCACTCC)	0.00842
TAGCATACTTGGGTTCTAACCTGTTGCCA (site TAGCATACTAG)	0.445
TAGCATACTTGGGTTCTAACCTGTTGCCA (site TAGCATACTCG)	0.0183
TAGCATACTTGGGTTCTAACCTGTTGCCA (site TAGCATACTGG)	0.359
TAGCATACTTGGGTTCTAACCTGTTGCCA (site TAGCATACTTG)	0.529
TAGCCATCTTGGGTTCTAACCTGTTGCCT (site TAACCATCTAG)	0.0247
TAGCCATCTTGGGTTCTAACCTGTTGCCT (site TACCCATCTAG)	0.166
TAGCCATCTTGGGTTCTAACCTGTTGCCT (site TAGCCATCTAG)	0.121
TAGCCATCTTGGGTTCTAACCTGTTGCCT (site TATCCATCTAG)	0.0171
TAGCCCTCTTGGGTTCTAACCTGTTGCAA (site ACAGTACCTCA)	0.202
TAGCCCTCTTGGGTTCTAACCTGTTGCAA (site TAGCCCTCTTT)	2.02
TAGCCCTCTTGGGTTCTAACCTGTTGCCG (site TAGCCCTCTCG)	1.82
TAGCCCTCTTGGGTTCTAACCTGTTGCCG (site TAGTCCGCTCG)	0.023
TAGCCGGCTTGGGTTCTAACCTGTTGCAG (site GAGCCGACTCT)	0.385

Sequence	recombinant barcode read abundance (log10)
TAGCCGGCTTGGGTTCTAACCTGTTGCAG (site TAGCCGGCTCT)	1.06
TAGCCGGCTTGGGTTCTAACCTGTTGCCT (site TAGCCGGCTAA)	0.264
TAGCCGGCTTGGGTTCTAACCTGTTGCCT (site TAGCCGGCTAG)	0.907
TAGCCGGCTTGGGTTCTAACCTGTTGCTT (site TAGCCGGCTAA)	0.358
TAGCCGGCTTGGGTTCTAACCTGTTGCTT (site TAGCCGGCTAG)	0.386
TAGCCTTCTTGGGTTCTAACCTGTTGCCT (site TAGCCTTCTAG)	0.572
TAGCCTTCTTGGGTTCTAACCTGTTGCCT (site TCGCCTTCTAG)	0.204
TAGCCTTCTTGGGTTCTAACCTGTTGCCT (site TGGCCTTCTAG)	0.0192
TAGCCTTCTTGGGTTCTAACCTGTTGCCT (site TTGCCTTCTAG)	0.0659
TAGCGGACTTGGGTTCTAACCTGTTGCAT (site TAGCGGACTAT)	0.992
TAGCGGACTTGGGTTCTAACCTGTTGCAT (site TAGCGGTCTAG)	0.0826
TAGCGGTCTTGGGTTCTAACCTGTTGCCT (site TAGCGGACTAT)	0.0756
TAGCGGTCTTGGGTTCTAACCTGTTGCCT (site TAGCGGTCTAG)	1.46
TAGCGTACTTGGGTTCTAACCTGTTGCGG (site TAGCGTACTAC)	0.107
TAGCGTACTTGGGTTCTAACCTGTTGCGG (site TAGCGTACTCC)	1.79
TAGCTCACTTGGGTTCTAACCTGTTGCGG (site TAGCACACTCC)	0.0805
TAGCTCACTTGGGTTCTAACCTGTTGCGG (site TAGCCCACTCC)	0.581
TAGCTCACTTGGGTTCTAACCTGTTGCGG (site TAGCGCACTCC)	0.791
TAGCTCACTTGGGTTCTAACCTGTTGCGG (site TAGCTCACTCC)	1.3
TAGCTCCCTTGGGTTCTAACCTGTTGCCG (site TAGCTCCCTAG)	0.475
